Test results as given in patent US10081631B2, “2-(1H-indazol-3-yl)-1H-imidazo[4,5-C]pyridine and therapeutic uses thereof” (Samumed, LLC, priority 2014, dated 2018).
pEC50, pIC50: −log10 of the molar value.

Key:
[1] = system: Wnt activity (Sp5-Luc reporter, SW480 colon carcinoma cells); test: Screening assay for Wnt activity: Sp5-Luc reporter gene assay in SW480 cells; assay type: cell-based; details: Homo sapiens, 42 h incubation, luminescence
From the text: The screening assay for Wnt activity is described as follows. Reporter cell lines can be generated by stably transducing cancer cell lines (e.g., colon cancer) or primary cells (e.g., IEC-6 intestinal cells) with a lentiviral construct that includes a Wnt-responsive promoter driving expression of the firefly luciferase gene.
SW480 colon carcinoma cells were transduced with a lentiviral vector expressing luciferase with a human Sp5 promoter consisting of a sequence of eight TCF/LEF binding sites. SW480 cells stably expressing the Sp5-Luc reporter gene and a hygromycin resistance gene were selected by treatment with 150 μg/ml of hygromycin for 7 days. These stably transduced SW480 cells were expanded in cell culture and used for all further screening activities. For Sp5-Luc reporter gene assays, the cells were plated at 10,000 cells/well in 96-well plates with growth medium containing 10% fetal calf serum and incubated overnight at 37° C. and 5% CO2. Each compound was dissolved in DMSO as a 10 mM stock in standard j-vials and used to prepare compound source plates in dose-response format with 3-fold serial dilutions and a 10 mM top concentration. Compound transfer from serially diluted source plates to assay plates containing the cells was accomplished using a pintool (Multimek 96, Beckman equipped with V&P Scientific FP1S50H pins) based liquid handling protocol. This protocol used a slotted pin to transfer 50 nl of compound from a source plate well to an assay plate well containing 50 μl of cells in growth medium. […] Control wells received 50 nl of DMSO treatment for normalization and calculating IC50 values. The treated cells were incubated at 37° C. and 5% CO2 for an additional forty-two hours. Following incubation, the growth medium was removed and 50 μl of BrightGlo luminescence reagent (Promega) was added to each well of the 96-well assay plates. The plates were placed on an orbital shaker for 5 min and then luminescence was quantified on the Victor3 (Perkin Elmer) plate reader. Readings were normalized to DMSO only treated cells, and normalized activities were utilized for IC50 calculations using the dose-response log (inhibitor) vs. response-variable slope (four parameters) nonlinear regression feature available in GraphPad Prism 5.0 or 6.0.

[2] = system: primary human fibroblasts derived from IPF patients (LL29 cells); test: Inhibition of fibrosis: TGF-β1-treated primary human fibroblasts from IPF patients (LL29), αSMA staining; assay type: cell-based; details: Fibroblast, 96 h, TGF-β1 20 ng/mL, 4 days, % αSMA-positive cells
From the text: The above synthesized compounds were screened using primary human fibroblasts (derived from IPF patients) treated with TGF-β1 to determine their ability to inhibit the fibrotic process.
Primary human fibroblasts derived from IPF patients (LL29 cells) [^1Xiaoqiu Liu, et. al., “Fibrotic Lung Fibroblasts Show Blunted Inhibition by cAMP Due to Deficient cAMP Response Element-Binding Protein Phosphorylation”, Journal of Pharmacology and Experimental Therapeutics (2005), 315(2), 678-687; ^2Watts, K. L., et. al., “RhoA signaling modulates cyclin D1 expression in human lung fibroblasts; implications for idiopathic pulmonary fibrosis”, Respiratory Research (2006), 7(1), 88] were obtained from American Type Culture Collection (ATCC) and expanded in F12 medium supplemented with 15% Fetal Bovine Serum and Penicillin/Streptomycin.
Each compound was dissolved in DMSO as a 10 mM stock and used to prepare compound source plates. Serial dilution (1:2, 11-point dose-response curves from 10 μM to 1.87 nM) and compound transfer was performed using the ECHO 550 (Labcyte, Sunnyvale, Calif.) into 384-well clear bottom assay plates (Greiner Bio-One) with appropriate DMSO backfill for a final DMSO concentration of 0.1%. LL29 cells were plated at 1,500 cells/well in 80 μl/well F12 medium supplemented with 1% Fetal Bovine Serum. One hour after addition of the cells, TGF-β1 (Peprotech; 20 ng/mL) was added to the plates to induce fibrosis (ref 1 and 2 above). Wells treated with TGF-β1 and containing DMSO were used as controls. Cells were incubated at 37° C. and 5% CO2 for 4 days. Following incubation for 4 days, SYTOX green nucleic acid stain (Life Technologies [Thermo Fisher Scientific]) was added to the wells at a final concentration of 1 uM and incubated at room temperature for 30 min. Cells were then fixed using 4% formaldehyde (Electron Microscopy Sciences), washed 3 times with PBS followed by blocking and permeabilization using 3% Bovine Serum Albumin (BSA; Sigma) and 0.3% Triton X-100 (Sigma) in PBS. Cells were then stained with antibody specific to α-smooth muscle actin (αSMA; Abcam) (ref 1 and 2 above) in 3% Bovine Serum Albumin (BSA; Sigma) and 0.3% Triton X-100 (Sigma) in PBS, and incubated overnight at 4° C. Cells were then washed 3 times with PBS, followed by incubation with Alexa Flor-647 conjugated secondary antibody (Life Technologies [Thermo Fisher Scientific]) and DAPI at room temperature for 1 hour. Cells were then washed 3 times with PBS and plates were sealed for imaging. αSMA staining was imaged by excitation at 630 nm and emission at 665 nm and quantified using the Compartmental Analysis program on the CellInsight CX5 (Thermo Scientific). Dead or apoptotic cells were excluded from analysis based on positive SYTOX green staining. % of total cells positive for αSMA were counted in each well and normalized to the average of 11 wells treated with TGF-β1 on the same plate using Dotmatics' Studies Software. The normalized averages (fold change over untreated) of 3 replicate wells for each compound concentration were used to create dose-responses curves and EC50 values were calculated using non-linear regression curve fit in the Dotmatics' Studies Software. The EC50 values are reported.

| Structure (SMILES) | pIC50 [1] | pEC50 [2] |
| --- | --- | --- |
| CC(C)(C)CC(=O)Nc1cncc(-c2ccc3[nH]nc(-c4nc5c(-c6ccccc6F)nccc5[nH]4)c3c2)c1 [Compound 68, N-(5-(3-(4-(2-Fluorophenyl)-1H-imidazo[4,5-c]pyridin-2-yl)-1H-indazol-5-yl)pyridin-3-yl)-3,3-dimethylbutanamide] | 7.70 | 8.05 |
| CCCC(=O)Nc1cncc(-c2ccc3[nH]nc(-c4nc5c(-c6ccccc6F)nccc5[nH]4)c3c2)c1 [Compound 69, N-(5-(3-(4-(2-Fluorophenyl)-1H-imidazo[4,5-c]pyridin-2-yl)-1H-indazol-5-yl)pyridin-3-yl)butyramide] | 8.30 | 7.13 |
| O=C(Nc1cncc(-c2ccc3[nH]nc(-c4nc5c(-c6ccccc6F)nccc5[nH]4)c3c2)c1)C1CCCC1 [Compound 73, N-(5-(3-(4-(2-Fluorophenyl)-1H-imidazo[4,5-c]pyridin-2-yl)-1H-indazol-5-yl)pyridin-3-yl)cyclopentanecarboxamide] | 8.10 | 8.05 |
| c1cncc(-c2ccc3[nH]nc(-c4nc5c(-c6cccnc6)nccc5[nH]4)c3c2)c1 [Compound 82, 4-(Pyridin-3-yl)-2-(5-(pyridin-3-yl)-1H-indazol-3-yl)-1H-imidazo[4,5-c]pyridine] | 8.10 | 8.05 |
| CC(C)(C)C(=O)Nc1cncc(-c2ccc3[nH]nc(-c4nc5c(-c6cccnc6)nccc5[nH]4)c3c2)c1 [Compound 86, N-(5-(3-(4-(Pyridin-3-yl)-1H-imidazo[4,5-c]pyridin-2-yl)-1H-indazol-5-yl)pyridin-3-yl)pivalamide] | 7.75 | 6.00 |
| CC(C)C(=O)Nc1cncc(-c2ccc3[nH]nc(-c4nc5c(-c6cccnc6)nccc5[nH]4)c3c2)c1 [Compound 87, N-(5-(3-(4-(Pyridin-3-yl)-1H-imidazo[4,5-c]pyridin-2-yl)-1H-indazol-5-yl)pyridin-3-yl)isobutyramide] | 8.52 | 6.53 |
| CC(C)Nc1cncc(-c2ccc3[nH]nc(-c4nc5c(-c6cccnc6)nccc5[nH]4)c3c2)c1 [Compound 90, N-Isopropyl-5-(3-(4-(pyridin-3-yl)-1H-imidazo[4,5-c]pyridin-2-yl)-1H-indazol-5-yl)pyridin-3-amine] | 8.40 | 8.05 |
| c1cncc(-c2nccc3[nH]c(-c4n[nH]c5ccc(-c6cncc(CN7CCCCC7)c6)cc45)nc23)c1 [Compound 93, 2-(5-(5-(Piperidin-1-ylmethyl)pyridin-3-yl)-1H-indazol-3-yl)-4-(pyridin-3-yl)-1H-imidazo[4,5-c]pyridine] | 6.50 | 6.41 |
| c1ccc(CNCc2cncc(-c3ccc4[nH]nc(-c5nc6c(-c7cccnc7)nccc6[nH]5)c4c3)c2)cc1 [Compound 101, N-Benzyl-1-(5-(3-(4-(pyridin-3-yl)-1H-imidazo[4,5-c]pyridin-2-yl)-1H-indazol-5-yl)pyridin-3-yl)methanamine] | 7.33 | 5.61 |
| O=C(Nc1cncc(-c2ccc3[nH]nc(-c4nc5c(-c6ccncc6)nccc5[nH]4)c3c2)c1)C1CCCCC1 [Compound 126, N-(5-(3-(4-(Pyridin-4-yl)-1H-imidazo[4,5-c]pyridin-2-yl)-1H-indazol-5-yl)pyridin-3-yl)cyclohexanecarboxamide] | 5.93 | 5.00 |
| CCNCc1cncc(-c2ccc3[nH]nc(-c4nc5c(-c6ccccn6)nccc5[nH]4)c3c2)c1 [Compound 136, N-((5-(3-(4-(Pyridin-2-yl)-1H-imidazo[4,5-c]pyridin-2-yl)-1H-indazol-5-yl)pyridin-3-yl)methyl)ethanamine] | 5.51 | 8.05 |
| O=C(Nc1cncc(-c2ccc3[nH]nc(-c4nc5c(-c6ccccn6)nccc5[nH]4)c3c2)c1)C1CCC1 [Compound 150, N-(5-(3-(4-(Pyridin-2-yl)-1H-imidazo[4,5-c]pyridin-2-yl)-1H-indazol-5-yl)pyridin-3-yl)cyclobutanecarboxamide] | 7.29 | 5.82 |
